# Experimental data as given in patent US20070264194A1, “Peptides That Bind To Atherosclerotic Lesions” (The Scripps Research Institute, priority 2001, published 2007).
# Entries after “also recorded” stand apart in the source; their conditions may differ. No end group written: not given here.
# Assays:
# [1] = non-diabetic insulin resistant monkeys; cited from earlier work
# atherosclerotic lesions = experiment: Biotinylated peptide binding in vivo to atherosclerotic lesions (aorta and sections); parameters: species or system atherosclerotic ApoE knockout mice
# Method: (§1) Immunohistochemical analysis for binding was performed on frozen 5 micron sections of ApoE mouse atherosclerotic aortic valve and aorta on poly-L-lysine coated slides. Biotinylated peptide binding to aortic lesions was detected by strepavidin conjugated peroxidase and was developed with DAB substrate (Vector, Burlingame, Calif.). For endothelial identification, biotinylated […] was used and was detected with Texas red conjugated strepavidin. Phage staining was performed with rabbit anti-phage antibody followed by a fluorescein conjugated goat anti-rabbit antibody. The sections were analyzed by laser scanning confocal microscopy.
# (§2) To observe phage or peptide association with atherosclerotic lesions, either phage carrying a homing peptide sequence or a circular synthetic peptide were injected into the mice via the tail vein. […] Fixation was in situ by perfusion with 4% paraformaldehyde. The aortas were dissected under a microscope, and the associated fat tissue cleaned while attached. The aorta was then longitudinally opened from aortic valve to iliac bifurcation. The detached aorta was pinned flat.
# To verify that the peptidyl sequence CAPGPSKSC (SEQ ID NO:4) that is expressed on phage protein m was responsible for the selective localization to atherosclerotic lesions, a biotinylated peptide containing the core sequence CAPGPSKSC (SEQ ID NO:4) was synthesized, folded, disulfide bonds constituted by oxidization, and compositional validity established by mass spectrometry. The peptide was injected into atherosclerotic ApoE knockout mice via tail vein, and the tissues were fixed by in vivo perfusion, and aortas were freed by dissection. The binding of biotinylated peptide to the aorta was visualized with strepavidin conjugated peroxidase and DAB substrate.
# The association of this peptide to the atherosclerotic lesions was also analyzed on tissue sections. The experiment was replicated in atherosclerotic ApoE mice by infusing CAPGPSKSC (SEQ ID NO:4) peptide and sections of the aorta were prepared, detected with strepavidin-conjugated peroxidase and developed with DAB substrate. Peptide binding to the surface of atherosclerotic lesions (FIG. 2B) was quite evident. […] These areas are likely involved in lesion formation and differ to some degree in their phenotype compared to that of the overlying endothelium.
# [2] = tested on: human atherosclerotic lesions; experiment: Biotinylated peptide binding to human vessel specimens
# Method: The atherosclerotic regions of human vessels were similarly dissected and pinned on to the dissecting pan. These tissues were then incubated with refolded biotinylated peptides (10.0 μg/ml) overnight at 4° C. The samples were washed three times. An avidin-peroxidase conjugate was used as a second tier probe, and each specimen was visualized with DAB substrate.
# HUVEC endothelial cells = experiment: Peptide binding assay, HUVEC; type: cell-based, human; settings: serial peptide concentrations, biotinylated synthetic peptides
# Method: (§3) Human umbilical cord venous endothelial cells (HUVEC) and EGM™ culture medium were from Clonetics, Walkersville, Md. Cells were cultivated in EGM with 5% fetal bovine serum (FBS) in flasks coated with 0.2% gelatin. The bEND.3 cells (ATCC) were cultured in Dulbecco's minimum essential medium (DMEM) (Invitrogen, Carlsbad, Calif.) supplemented with 10% FBS and 2 mM L-glutamine. The HT1080 cells were from ATCC and cultured in DMEM supplemented with 10% FBS, 2 mM L- glutamine, 1.5 g/L sodium bicarbonate, and 0.1 mM NEAA (Non-essential amino acids, Invitrogen, Carlsbad, Calif.). The ECV304 were from ATCC and cultured in DMEM, 10% FBS.
# (§4) Analysis of synthetic peptide binding to cells was performed in 96 well plates. Cells (10^5) were plated into each well, incubated overnight then briefly fixed with cold ethanol for 10 seconds. Serial concentrations of peptide in 100 μl PBS were added and incubated at room temperature with gentle shaking for four hours. The wells were washed three times with PBS and reaction developed using strepavidin-peroxidase substrate (Vector, Burlingame, Calif.). The reactions were quantified at 405 nm in a plate reader (Molecular Devices, Sunnyvale, Calif.). In the inhibition assay, TIMP-2 protein was included with the peptide in the initial incubation.
# fibroblast line HT1080 = experiment: Peptide binding assay, HT1080; type: cell-based; settings: not shown
# Method: as §3, §4
# ECV304 = experiment: Peptide binding assay, ECV304; type: cell-based; settings: not shown
# Method: as §3, §4
# [3] = tested on: TIMP-2 binding site on the surface of endothelial cells; experiment: Inhibition of peptide binding by TIMP-2 protein; type: cell-based; settings: purified TIMP-2 protein 0.05 μM, peptide 0.5 μM
# Method: as §4
# [4] = tested on: aortic endothelium of ApoE knockout mice; experiment: Phage binding to aortic valves/endothelium (immunohistochemistry, confocal microscopy); type: in vivo
# Method: as §1, §2
# [5] = sections of aorta, atherosclerotic ApoE mice
molecule,measurement,setting,value
Cc1cc(SCc2sc(-c3ccc(C(F)(F)F)cc3)nc2C)ccc1OCC(=O)O [GW501516],increase of HDL-C,[1],80%
same,increase of apoA-I,[1],43%
same,"triglyceride, LDL-C and insulin levels",[1],lowered
CAPGPSKSC (not fully specified (bridges); cysteine pairing not given here) [SEQ ID NO:4],peptide binding to lesions of the aorta,"atherosclerotic lesions; biotinylated synthetic peptide via tail vein, atherosclerotic ApoE knockout mice, streptavidin-peroxidase/DAB",like that of phage displaying the peptide; also recorded: replicated the CAPGPSKSC (SEQ ID NO:4) phage binding to the lesions
same,"peptide binding to the surface of atherosclerotic lesions, tissue sections","atherosclerotic lesions; sections of aorta after infusion of peptide, atherosclerotic ApoE mice",quite evident
same,"pattern of peptide binding within the lesion, tissue sections",atherosclerotic lesions; [5],most intense in the endothelium overlying the atherosclerotic lesion; also recorded: bind more to the endothelium at the periphery of the lesions and less to the central aspect of the lesions
same,"peptide signal outside the lesions, tissue sections",atherosclerotic lesions; [5],no substantial signal was evident elsewhere
same,peptide binding to atherosclerotic lesion in human arterial specimen,"[2]; biotinylated peptide 10.0 μg/ml on luminal surface, overnight 4° C., avidin-peroxidase/DAB",Bound peptide is apparent; also recorded: preferentially bound to the atherosclerotic plaque
same,peptide binding to non-atherosclerotic arterial samples or veins,"[2]; human vascular samples, biotinylated peptide",no observable binding
"CNHRYMQMC (A synthetic sequence from a combinatorial phage display library.) [SEQ ID NO:344, Eo3-114]",peptide binding to endothelial cells (absorbance at 405 nm),HUVEC endothelial cells,dose dependent binding
same,peptide binding to HT1080 cells,fibroblast line HT1080,dose dependent binding
same,peptide binding to ECV304,ECV304,dose dependent binding
same,effect of TIMP-2 protein on peptide binding to cells,[3],inhibits binding; also recorded: competitively inhibited
"CNQRHQMSC (A synthetic sequence from a combinatorial phage display library.) [SEQ ID NO:336, Eo3-112]",peptide binding to endothelial cells (absorbance at 405 nm),HUVEC endothelial cells,dose dependent binding
same,peptide binding to HT1080 cells,fibroblast line HT1080,dose dependent binding
same,peptide binding to ECV304,ECV304,dose dependent binding
same,effect of TIMP-2 protein on peptide binding to cells,[3],inhibits binding; also recorded: competitively inhibited
same,selectivity of localization for atherosclerotic lesion endothelium,[4],associates with a molecule present on both atherosclerotic and normal endothelial surfaces; also recorded: not entirely selective for atherosclerotic lesion endothelium
"CYNRSDGMC (A synthetic sequence from a combinatorial phage display library.) [SEQ ID NO:464, TIMP-2 homologous peptide]",peptide binding to endothelial cells (absorbance at 405 nm),HUVEC endothelial cells,dose dependent binding
same,peptide binding to HT1080 cells,fibroblast line HT1080,dose dependent binding
same,peptide binding to ECV304,ECV304,dose dependent binding
same,effect of TIMP-2 protein on peptide binding to cells,[3],inhibits binding; also recorded: competitively inhibited
